Laboratory results published in the supplement of paper PMC10307832.

How the values were obtained:
Test in all cases: relative viability (nuclei count vs DMSO), 5 days (fraction); higher = more cells survive
XMD13-2 + Navitoclax = compound: C1CC1C(=O)NC2=NNC3=C2C=CC(=C3)C4=CC(=CC=C4)C(=O)NC5CC5 [XMD13-2] + CC1(C)CCC(c2ccc(Cl)cc2)=C(CN2CCN(c3ccc(C(=O)NS(=O)(=O)c4ccc(N[C@H](CCN5CCOCC5)CSc5ccccc5)c(S(=O)(=O)C(F)(F)F)c4)cc3)CC2)C1 [Navitoclax] (partner 0.5 µM)
Method in brief: (§1)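 A single step with final 0.05% Triton X-100, 1% formaldehyde and 1 ug/ml Hoechst fixed the cells and stained nuclei 5 days after treatment. Lung cancer cell lines in 1536-well plates had been treated by pin tool the day after seeding with one drug alone or a fixed anchor-drug dose plus five library-drug doses (not always all listed) in √10 steps, and nuclei were counted on 4× images. Relative viability is the ratio of nuclei in treated wells to nuclei in vehicle wells, taken as the median of duplicate plates.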

XMD13-2 + Foretinib = compound: C1CC1C(=O)NC2=NNC3=C2C=CC(=C3)C4=CC(=CC=C4)C(=O)NC5CC5 [XMD13-2] + COc1cc2c(Oc3ccc(NC(=O)C4(C(=O)Nc5ccc(F)cc5)CC4)cc3F)ccnc2cc1OCCCN1CCOCC1 [Foretinib] (partner 0.25 µM)
Method in brief: as §1

XMD13-2 + Crizotinib = compound: C1CC1C(=O)NC2=NNC3=C2C=CC(=C3)C4=CC(=CC=C4)C(=O)NC5CC5 [XMD13-2] + C[C@@H](Oc1cc(-c2cnn(C3CCNCC3)c2)cnc1N)c1c(Cl)ccc(F)c1Cl [Crizotinib] (partner 1 µM)
Method in brief: as §1

ALW-II-49-7 + Trametinib = compound: Cc1ccc(C(=O)Nc2cccc(C(F)(F)F)c2)cc1Nc1cncc(C(N)=O)c1 [ALW-II-49-7] + CC(=O)Nc1cccc(-n2c(=O)n(C3CC3)c(=O)c3c(Nc4ccc(I)cc4F)n(C)c(=O)c(C)c32)c1 [Trametinib] (partner 0.02 µM)
Method in brief: as §1

Row | Cell Line | relative viability (XMD13-2 + Navitoclax; first compound 0.05 µM) | relative viability (XMD13-2 + Navitoclax; first compound 0.1581 µM) | relative viability (XMD13-2 + Navitoclax; first compound 0.5 µM) | relative viability (XMD13-2 + Navitoclax; first compound 1.581 µM) | relative viability (XMD13-2 + Navitoclax; first compound 5 µM) | relative viability (XMD13-2 + Foretinib; first compound 0.05 µM) | relative viability (XMD13-2 + Foretinib; first compound 0.1581 µM) | relative viability (XMD13-2 + Foretinib; first compound 0.5 µM) | relative viability (XMD13-2 + Foretinib; first compound 1.581 µM) | relative viability (XMD13-2 + Foretinib; first compound 5 µM) | relative viability (XMD13-2 + Crizotinib; first compound 0.05 µM) | relative viability (XMD13-2 + Crizotinib; first compound 0.1581 µM) | relative viability (XMD13-2 + Crizotinib; first compound 0.5 µM) | relative viability (XMD13-2 + Crizotinib; first compound 1.581 µM) | relative viability (XMD13-2 + Crizotinib; first compound 5 µM) | relative viability (ALW-II-49-7 + Trametinib; first compound 0.08 µM) | relative viability (ALW-II-49-7 + Trametinib; first compound 0.253 µM) | relative viability (ALW-II-49-7 + Trametinib; first compound 0.8 µM) | relative viability (ALW-II-49-7 + Trametinib; first compound 2.53 µM) | relative viability (ALW-II-49-7 + Trametinib; first compound 8 µM)
1 | 201T | 1.22 | 1.25 | 1.2 | 1.19 | 1.29 | 1.28 | 1.09 | 1.12 | 1.15 | 1.16 | 1 | 1.01 | 1 | 0.988 | 1.07 | 0.718 | 0.791 | 0.691 | 0.715 | 0.777
2 | A549 | 1.53 | 1.23 | 1.13 | 1.16 | 1.17 | 1.08 | 0.972 | 0.902 | 0.965 | 0.97 | 0.994 | 0.736 | 0.721 | 0.664 | 0.824 | – | – | – | – | –
3 | ABC-1 | – | – | – | – | – | 0.949 | 1.1 | 1.41 | 1.03 | 0.846 | 1.4 | 1.41 | 1.16 | 1.03 | 0.675 | – | – | – | – | –
4 | Calu-6 | 0.915 | 0.829 | 0.808 | 0.776 | 0.548 | 0.954 | 0.906 | 0.89 | 0.909 | 0.772 | 0.958 | 0.813 | 0.898 | 0.773 | 0.643 | – | – | – | – | –
5 | EBC-1 | 0.563 | 0.375 | 0.404 | 0.232 | 0.176 | 0.0838 | 0.0911 | 0.109 | 0.124 | 0.0963 | 0.225 | 0.208 | 0.204 | 0.178 | 0.199 | – | – | – | – | –
6 | HCC-44 | 1.01 | 1.03 | 1.12 | 0.949 | 1 | – | – | – | – | – | 0.789 | 0.814 | 0.75 | 0.772 | 0.755 | 1.08 | 0.994 | 1.03 | 1.09 | 1.26
7 | IA-LM | 0.821 | 0.867 | 0.724 | 0.769 | 0.457 | 1.07 | 1.29 | 1.12 | 1.11 | 0.621 | 0.674 | 0.794 | 0.65 | 0.664 | 0.528 | – | – | – | – | –
8 | LCLC-103H | – | – | – | – | – | 0.759 | 0.726 | 0.735 | 0.61 | 0.575 | 1.05 | 1.01 | 1.18 | 1 | 1.14 | 0.667 | 0.748 | 0.735 | 0.712 | 0.677
9 | NCI-H358 | – | – | – | – | – | 0.805 | 0.767 | 0.904 | 0.685 | 0.335 | 0.77 | 0.546 | 0.736 | 0.423 | 0.324 | 0.117 | 0.123 | 0.142 | 0.14 | 0.119
10 | NCI-H522 | – | – | – | – | – | – | – | – | – | – | – | – | – | – | – | 0.883 | 0.665 | 0.867 | 0.82 | 0.853
11 | NCI-H650 | – | – | – | – | – | 1.16 | 1.02 | 1.14 | 1.06 | 0.972 | 0.838 | 0.836 | 0.803 | 0.638 | 0.74 | 0.876 | 1.16 | 0.993 | 0.996 | 0.929
12 | NCI-H661 | – | – | – | – | – | 1 | 1.06 | 1.04 | 1.02 | 0.875 | 0.985 | 1.02 | 0.864 | 0.887 | 0.875 | 0.529 | 0.606 | 0.521 | 0.567 | 0.53
13 | NCI-H1299 | 1.04 | 1.03 | 1.06 | 1.03 | 1.09 | 1.02 | 1.12 | 1.15 | 1.14 | 1.16 | 1.02 | 0.954 | 0.99 | 0.948 | 0.904 | – | – | – | – | –
14 | NCI-H1395 | 1.25 | 1.16 | 1.23 | 1.11 | 1.1 | 0.983 | 1.02 | 1.05 | 0.992 | 1 | – | – | – | – | – | 0.906 | 1.1 | 1.3 | – | 0.938
15 | NCI-H1563 | – | – | – | – | – | 0.883 | 1.06 | 0.99 | 0.961 | 0.866 | 0.91 | 0.898 | 0.77 | 0.852 | 1.02 | – | – | – | – | –
16 | NCI-H1623 | – | – | – | – | – | 0.898 | 0.864 | 0.892 | 0.824 | 0.947 | – | – | – | – | – | – | – | – | – | –
17 | NCI-H1648 | – | – | – | – | – | – | – | – | – | – | – | – | – | – | – | 0.522 | 0.317 | 0.462 | 0.347 | 0.449
18 | NCI-H1703 | 1.59 | 1.19 | 1.24 | 0.889 | 1.16 | 0.303 | 0.411 | – | 0.336 | 0.393 | 1.11 | 0.997 | 0.874 | 0.422 | 0.465 | – | – | – | – | –
19 | NCI-H1792 | 0.746 | 0.591 | 0.715 | 0.491 | 0.886 | – | – | – | – | – | 1.22 | 0.929 | 0.979 | 0.869 | 1.12 | 0.583 | 0.436 | 0.42 | 0.369 | 0.471
20 | NCI-H1793 | 0.48 | 0.394 | 0.485 | 0.426 | 0.509 | 0.84 | – | 0.966 | 0.791 | 0.68 | – | – | – | – | – | 0.365 | 0.404 | 0.486 | 0.409 | 0.443
21 | NCI-H2342 | – | – | – | – | – | 0.973 | 1.04 | 1.11 | 0.984 | 1.01 | – | – | – | – | – | 0.709 | 0.817 | 0.828 | 0.69 | 0.786
22 | SW 900 | – | – | – | – | – | 1.1 | 0.963 | 0.922 | 0.963 | 0.677 | – | – | – | – | – | 0.864 | 0.869 | – | 0.727 | 0.874
